Conditions: free acid ion-paired with arginine in Arlatone G / ginger oil / water cubic phase; overlain with large excess of water; two days
From the text: The antiosteolytic drug Alendronate (as the free acid) was incorporated into a cubic phase based on the ethoxylated, hydrogenated castor oil surfactant Arlatone G (from Uniquema).

NCCCC(O)(P(=O)(O)O)P(=O)(O)O [alendronate, Alendronate]
amount of alendronate which leaked out of the cubic phase into the water: undetectable
